Experimental data reported in US4278670A, “7-Alpha-oxyiminoacylcephalosporins” (SmithKline Corporation, priority 1976, dated 1981).
Converted amounts (≈) assume the structure as drawn. Counter-ions that a name gives are not always drawn. Like-named read-outs stand apart in the source and are kept apart here.

What was measured:
E. coli HH 33779 = assay: MIC in vitro, E. coli HH 33779 (G-); type: cell-based; details: Escherichia coli, HH33779
S. villaluz SK 70390 = assay: MIC in vitro, S. villaluz SK 70390 (G+); type: cell-based
[1] = test system: Entero. aerogenes ATCC 13048; assay: MIC in vitro, Entero. aerogenes ATCC 13048 (G-); type: cell-based; details: Klebsiella aerogenes, ATCC13048
S. Aureus SK 23390 = assay: MIC in vitro, S. Aureus SK 23390 (G+); type: cell-based; details: Staphylococcus aureus
[2] = test system: Serratia Marcescens ATCC 13880; assay: MIC in vitro, Serratia Marcescens ATCC 13880 (G-); type: cell-based; details: ATCC13880
Salmonella ATCC 12176 = assay: MIC in vitro, Salmonella ATCC 12176 (G-); type: cell-based; details: ATCC12176
E. coli SK 12140 = assay: MIC in vitro, E. coli SK 12140 (G-); type: cell-based; details: Escherichia coli, SK12140
P. Mirabils PM 444 = assay: MIC in vitro, P. Mirabils PM 444 (G-); type: cell-based
S. Aureus HH 127 = assay: MIC in vitro, S. Aureus HH 127 (G+); type: cell-based; details: Staphylococcus aureus
Kleb. pneumoniae SK 1200 = assay: MIC in vitro, Kleb. pneumoniae SK 1200 (G-); type: cell-based; details: Klebsiella pneumoniae, SK1200
Entero. cloacae HH 31254 = assay: MIC in vitro, Entero. cloacae HH 31254 (G-); type: cell-based; details: Enterobacter cloacae, HH31254
Pseudo Aeruginosa HH 63 = assay: MIC in vitro, Pseudo Aeruginosa HH 63 (G-); type: cell-based
E. coli 12140 = assay: mouse protection against E. coli 12140; type: in vivo; details: Escherichia coli, sc, S.C.
From the text: For comparison with known used compounds, data for cefuroxime, cefazolin and cephalothin are included.

Proteus morgani 179 = assay: MIC in vitro, Proteus morgani 179 (G-); type: cell-based
Strep. Faecalis HH 34358 = assay: MIC in vitro, Strep. Faecalis HH 34358 (G+); type: cell-based; details: Enterococcus faecalis
Kleb. pneumoniae SK 2400 = assay: MIC in vitro, Kleb. pneumoniae SK 2400 (G-); type: cell-based; details: Klebsiella pneumoniae, SK2400
[3] = in vitro, G+, S. villaluz SK 70390, read-out: MIC
[4] = in vitro, G-, Entero. aerogenes ATCC 13048, read-out: MIC
[5] = in vitro, G+, S. Aureus SK 23390, read-out: MIC
[6] = in vitro, G-, Salmonella ATCC 12176, read-out: MIC
[7] = in vitro, G+, S. Aureus HH 127, read-out: MIC
[8] = in vitro, G-, Kleb. pneumoniae SK 1200, read-out: MIC
[9] = in vitro, G-, Entero. cloacae HH 31254, read-out: MIC
[10] = in vitro, G-, Proteus morgani 179, read-out: MIC
[11] = in vitro, G+, Strep. Faecalis HH 34358, read-out: MIC
[12] = in vitro, G-, Kleb. pneumoniae SK 2400, read-out: MIC

Question: With `Cc1nnc(SCC2=C(C(=O)O)N3C(=O)[C@@H](NC(=O)Cn4cnnn4)[C@H]3SC2)s1` [Cefazolin, cefazolin] as the compound, how does the MIC (E. coli HH 33779; in vitro, G-, E. coli HH 33779, read-out: MIC) read?
Answer: Its MIC is 0.8 µg/mL (≈ 1.76 µM).

Question: And the MIC (S. villaluz SK 70390; [3])?
Answer: The MIC was 200 µg/mL (≈ 440 µM).

Question: What about the MIC [1, 4] of the same compound?
Answer: The MIC was 1.6 µg/mL (≈ 3.52 µM).

Question: What about the MIC (S. Aureus SK 23390; [5]) of the same compound?
Answer: Its MIC is 0.2 µg/mL (≈ 0.44 µM).

Question: And the MIC ([2]; in vitro, G-, Serratia Marcescens ATCC 13880, read-out: MIC)?
Answer: The MIC was 100 µg/mL (≈ 220 µM).

Question: What about the MIC (Salmonella ATCC 12176; [6]) of the same compound?
Answer: Its MIC is 0.8 µg/mL (≈ 1.76 µM).

Question: What about the MIC (E. coli SK 12140) of the same compound?
Answer: The MIC was 0.8 µg/mL (≈ 1.76 µM).

Question: What about the MIC (P. Mirabils PM 444) of the same compound?
Answer: Its MIC is 3.1 µg/mL (≈ 6.82 µM).

Question: What about the MIC (S. Aureus HH 127; [7]) of the same compound?
Answer: Its MIC is 0.4 µg/mL (≈ 0.88 µM).

Question: And the MIC (Kleb. pneumoniae SK 1200; [8])?
Answer: Its MIC is 0.8 µg/mL (≈ 1.76 µM).

Question: And the MIC (Entero. cloacae HH 31254; [9])?
Answer: The MIC was 0.8 µg/mL (≈ 1.76 µM).

Question: And the MIC (Pseudo Aeruginosa HH 63; in vitro, G-, Pseudo Aeruginosa HH 63, read-out: MIC)?
Answer: Its MIC is > 200 µg/mL.

Question: And the ED50 (E. coli 12140)?
Answer: Its ED50 is 6.25 mg/kg.

Question: What about the MIC (Proteus morgani 179; [10]) of the same compound?
Answer: Its MIC is 100 µg/mL (≈ 220 µM).

Question: What about the MIC (Strep. Faecalis HH 34358; [11]) of the same compound?
Answer: The MIC was 6.3 µg/mL (≈ 13.9 µM).

Question: And the MIC (Kleb. pneumoniae SK 2400; [12])?
Answer: The MIC was 0.8 µg/mL (≈ 1.76 µM).

Question: `CO/N=C(\C(=O)N[C@@H]1C(=O)N2C(C(=O)O)=C(COC(N)=O)CS[C@H]12)c1ccco1` [Cefuroxim, cefuroxime] was tested. Which MIC (E. coli HH 33779) did it give?
Answer: Its MIC is 6.3 µg/mL (≈ 14.8 µM).

Question: And the MIC (S. villaluz SK 70390)?
Answer: The MIC was > 200 µg/mL.

Question: What about the MIC [1, 4] of the same compound?
Answer: The MIC was 6.3 µg/mL (≈ 14.8 µM).

Question: And the MIC (S. Aureus SK 23390)?
Answer: The MIC was 1.6 µg/mL (≈ 3.77 µM).

Question: And the MIC ([2]; Serratia marcescens)?
Answer: The MIC was 12.5 µg/mL (≈ 29.5 µM).

Question: And the MIC (Salmonella ATCC 12176; Salmonella)?
Answer: Its MIC is 3.1 µg/mL (≈ 7.3 µM).

Question: What about the MIC (E. coli SK 12140) of the same compound?
Answer: The MIC was 6.3 µg/mL (≈ 14.8 µM).

Question: And the MIC (P. Mirabils PM 444)?
Answer: The MIC was 1.6 µg/mL (≈ 3.77 µM).

Question: What about the MIC (S. Aureus HH 127) of the same compound?
Answer: Its MIC is 0.8 µg/mL (≈ 1.89 µM).

Question: What about the MIC (Kleb. pneumoniae SK 1200) of the same compound?
Answer: The MIC was 3.1 µg/mL (≈ 7.3 µM).

Question: What about the MIC (Entero. cloacae HH 31254) of the same compound?
Answer: The MIC was 3.1 µg/mL (≈ 7.3 µM).

Question: What about the MIC (Pseudo Aeruginosa HH 63) of the same compound?
Answer: Its MIC is > 200 µg/mL.

Question: And the ED50 (E. coli 12140)?
Answer: Its ED50 is 6.25 mg/kg.

Question: And the MIC (Proteus morgani 179; [10])?
Answer: Its MIC is 50 µg/mL (≈ 118 µM).

Question: What about the MIC (Strep. Faecalis HH 34358; [11]) of the same compound?
Answer: Its MIC is 2.5 µg/mL (≈ 5.89 µM).

Question: And the MIC (Kleb. pneumoniae SK 2400)?
Answer: Its MIC is 3.1 µg/mL (≈ 7.3 µM).

Question: Which MIC (E. coli HH 33779) does the source give for `CC(=O)OCC1=C(C(=O)O)N2C(=O)[C@@H](NC(=O)Cc3cccs3)[C@H]2SC1` [Cephalothin, cephalothin] here?
Answer: The MIC was 6.3 µg/mL (≈ 15.9 µM).

Question: And the MIC (S. villaluz SK 70390; [3])?
Answer: The MIC was 50 µg/mL (≈ 126 µM).

Question: And the MIC [1]?
Answer: Its MIC is 12.5 µg/mL (≈ 31.5 µM).

Question: What about the MIC (S. Aureus SK 23390; [5]) of the same compound?
Answer: The MIC was 0.2 µg/mL (≈ 0.504 µM).

Question: What about the MIC ([2]; Serratia marcescens) of the same compound?
Answer: The MIC was > 200 µg/mL.

Question: What about the MIC (Salmonella ATCC 12176; [6]) of the same compound?
Answer: The MIC was 0.8 µg/mL (≈ 2.02 µM).

Question: And the MIC (E. coli SK 12140)?
Answer: Its MIC is 3.1 µg/mL (≈ 7.82 µM).

Question: And the MIC (P. Mirabils PM 444)?
Answer: The MIC was 3.1 µg/mL (≈ 7.82 µM).

Question: What about the MIC (S. Aureus HH 127; [7]) of the same compound?
Answer: Its MIC is 0.2 µg/mL (≈ 0.504 µM).

Question: What about the MIC (Kleb. pneumoniae SK 1200) of the same compound?
Answer: The MIC was 1.6 µg/mL (≈ 4.04 µM).

Question: And the MIC (Entero. cloacae HH 31254; [9])?
Answer: The MIC was 6.3 µg/mL (≈ 15.9 µM).

Question: What about the MIC (Pseudo Aeruginosa HH 63) of the same compound?
Answer: Its MIC is > 200 µg/mL.

Question: And the MIC (Proteus morgani 179)?
Answer: Its MIC is > 200 µg/mL.

Question: And the MIC (Strep. Faecalis HH 34358)?
Answer: The MIC was 12.5 µg/mL (≈ 31.5 µM).

Question: And the MIC (Kleb. pneumoniae SK 2400)?
Answer: Its MIC is 3.1 µg/mL (≈ 7.82 µM).

Question: Which results are given for `CO/N=C(\C(=O)N[C@@H]1C(=O)N2C(C(=O)O)=C(CSc3nnnn3CCC(=O)O)CS[C@H]12)c1ccco1` [Example 1, 7[Syn-2-methoxyimino-2-α-furylacetamido]-3-[1-(2-carboxyethyl)tetrazol-5-ylthiomethyl]-3-cephem-4-carboxylic acid, disodium salt]?
Answer: MIC (E. coli HH 33779): 3.1 µg/mL; MIC (S. villaluz SK 70390; [3]): > 200 µg/mL; MIC [1]: 3.1 µg/mL; MIC (S. Aureus SK 23390): 1.6 µg/mL; MIC ([2]; Serratia marcescens): 3.1 µg/mL; MIC (Salmonella ATCC 12176; [6]): 0.8 µg/mL; MIC (E. coli SK 12140; in vitro, G-, E. coli SK 12140, read-out: MIC): 1.6 µg/mL; MIC (P. Mirabils PM 444): 0.2 µg/mL; MIC (S. Aureus HH 127): 3.1 µg/mL; MIC (Kleb. pneumoniae SK 1200; [8]): 0.8 µg/mL; MIC (Entero. cloacae HH 31254; [9]): 1.6 µg/mL; MIC (Pseudo Aeruginosa HH 63): 200 µg/mL; ED50 (E. coli 12140): 4.4 mg/kg; MIC (Proteus morgani 179; [10]): 1.6 µg/mL; MIC (Strep. Faecalis HH 34358): 50 µg/mL; MIC (Kleb. pneumoniae SK 2400; [12]): 0.8 µg/mL
